In series [1] the target is T1, Ba/F3-FL-TYK2-P760L cells (Homo sapiens, UniProt P29597, P760L, cells depend on it).
T1 construct: BaF3-FL-T2P760L (nM)
In words: Anti-proliferative assay, Ba/F3-FL-TYK2-P760L cells (Cell-Titer Glo). Format: cell-based. To be noted: 72 h, read-out: BaF3-FL-T2P760L IC50. The gist of the method:
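Ba/F3 cells made IL-3-independent by TEL-fused or full-length mutant JAK-family kinases, seeded at 2000/well and dosed after 24 h with 9 three-fold dilutions topping at 20 μM. Viability after 72 h at 37 °C, 5% CO2 by Cell-Titer Glo ATP luminescence.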

Series [2] is described as follows: Microsomal metabolic stability assay. The class given is in vitro ADME. The note with it: pH 7.4, 0.5 mg/mL protein, 1 μM compound. Here is the method: Microsomal Metabolic Stability Assay
Microsomes were pre-incubated with test compound or control compounds for 5 min at 37° C. in 100 mM potassium phosphate buffer, pH 7.4, 1.0 mM EDTA. The reaction was initiated by addition of 15 μL of the NADPH regenerating system to 30 μL of each incubation mixture per time point. The final incubation condition was composed of 0.5 mg/mL microsomal protein, 1 μM test article/positive control, 2 mM NADPH. The 0-minute samples were prepared by addition of a 30 μL aliquot of each incubation mixture to 135 μL quench reagent to precipitate proteins. And then a 15 μL aliquot of the NADPH regenerating system was added. At 5, 15, 30 and 45 minutes, the reaction will be stopped by the addition of cold acetonitrile solution containing internal standard. The samples taken at all time points were centrifuged at 5000×g for 15 minutes. 50 μL of supernatant are taken into 96-well assay plates pre-added with 50 μL ultrapure water, and then analyzed by LC/MS/MS.
Concentrations of test articles, control compounds in the samples were determined by using LC/MS/MS method. Plotting of the chromatograms and peak area integrations are carried out by Analyst (AB Sciex).
n the determination of the in vitro elimination constant (ke) of the control compounds, the analyte/internal standard peak area ratios will be converted to percentage remaining (% Remaining) with the following equation: […]
The slope was measured by the natural logarithm of the percentage of the residual compound and time, T1/2 was calculated according to the following formula.

Where [3] appears, read: human liver microsomes, read-out: Human LM Clint.
The mark [4] stands for this setting: human liver microsomes, read-out: Human LM T½.
Where [5] appears, read: rat liver microsomes, read-out: Rat LM Clint.
The mark [6] stands for this setting: rat liver microsomes, read-out: Rat LM T½.
The mark [7] stands for this setting: dog liver microsomes, read-out: Dog LM Clint.
Where [8] appears, read: dog liver microsomes, read-out: Dog LM T½.

The structures appear in SMILES notation. Read-outs that look alike come from different tables or passages of the source.

T1 sequence (P29597 whole entry P760L): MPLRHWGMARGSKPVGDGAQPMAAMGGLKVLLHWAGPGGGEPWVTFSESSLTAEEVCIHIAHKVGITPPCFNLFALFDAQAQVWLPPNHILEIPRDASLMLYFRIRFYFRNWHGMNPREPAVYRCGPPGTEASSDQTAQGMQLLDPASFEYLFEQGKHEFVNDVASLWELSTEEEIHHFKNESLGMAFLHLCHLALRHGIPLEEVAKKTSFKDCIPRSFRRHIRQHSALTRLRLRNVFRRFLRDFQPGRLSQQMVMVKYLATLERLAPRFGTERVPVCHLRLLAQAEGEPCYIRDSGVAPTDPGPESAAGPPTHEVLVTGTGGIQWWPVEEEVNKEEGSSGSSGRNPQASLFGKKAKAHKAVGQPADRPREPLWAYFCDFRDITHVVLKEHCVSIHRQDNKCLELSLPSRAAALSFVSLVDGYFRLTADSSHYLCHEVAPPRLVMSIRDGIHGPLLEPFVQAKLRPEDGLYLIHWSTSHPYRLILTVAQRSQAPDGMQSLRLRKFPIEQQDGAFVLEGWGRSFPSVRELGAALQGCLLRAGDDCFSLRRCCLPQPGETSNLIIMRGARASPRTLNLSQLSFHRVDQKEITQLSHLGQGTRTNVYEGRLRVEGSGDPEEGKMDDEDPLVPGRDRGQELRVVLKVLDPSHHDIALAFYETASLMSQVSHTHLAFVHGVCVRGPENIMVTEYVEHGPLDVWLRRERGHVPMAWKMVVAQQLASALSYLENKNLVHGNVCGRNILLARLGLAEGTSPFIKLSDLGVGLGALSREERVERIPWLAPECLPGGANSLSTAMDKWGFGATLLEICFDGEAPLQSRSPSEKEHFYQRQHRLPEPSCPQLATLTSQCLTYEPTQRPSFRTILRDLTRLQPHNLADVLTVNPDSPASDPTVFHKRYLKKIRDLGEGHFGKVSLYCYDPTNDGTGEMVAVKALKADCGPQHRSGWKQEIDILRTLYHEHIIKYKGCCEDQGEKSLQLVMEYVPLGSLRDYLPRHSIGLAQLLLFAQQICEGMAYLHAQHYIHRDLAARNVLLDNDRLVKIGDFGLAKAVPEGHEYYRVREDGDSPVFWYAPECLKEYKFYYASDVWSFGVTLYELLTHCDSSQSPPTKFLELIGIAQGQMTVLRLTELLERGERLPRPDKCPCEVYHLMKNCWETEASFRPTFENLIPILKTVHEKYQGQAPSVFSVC

For `CNC(=O)c1cnc(Nc2ccc(F)cn2)cc1Nc1cn(C)c2ccn(C)c(=O)c12` [Example 11, 4-((1,5-Dimethyl-4-oxo-4,5-dihydro-1H-pyrrolo[3,2-c]pyridin-3-yl)amino)-6-((5-fluoropyridin-2-yl)amino)-N-methylnicotinamide], in series [1], the GI50 is 124 nM. For the same compound, the figures for the microsomal CLint at 1 μM in series [2] (setting [3]) and in series [2] (setting [5]) were 74 µL/min/mg and 30.6 µL/min/mg, respectively. Moreover, the half-life at 1 μM in series [2] (setting [4]) came to 18.7 min; in series [2] (setting [6]) it was 45.3 min.

For the compound `CNC(=O)c1cnc(NC(=O)C2CC2)cc1Nc1cn(C)c2ccn(C)c(=O)c12` [Example 12, 6-(Cyclopropanecarboxamido)-4-((1,5-dimethyl-4-oxo-4,5-dihydro-1H-pyrrolo[3,2-c]pyridin-3-yl)amino)-N-methylnicotinamide], in series [1], the GI50 stood at 416 nM. Further, the figures for the microsomal CLint at 1 μM in series [2] (setting [3]) and in series [2] (setting [5]) were 25.8 µL/min/mg and 16.4 µL/min/mg, respectively. For the same compound, the half-life at 1 μM in series [2] (setting [4]) was 53.7 min; in series [2] (setting [6]), 84.5 min.

Regarding `CNC(=O)c1cnc(NC(=O)C2CC2)cc1Nc1csc2ccn(C)c(=O)c12` [Example 16, 6-(Cyclopropanecarboxamido)-N-methyl-4-((5-methyl-4-oxo-4,5-dihydrothieno[3,2-c]pyridin-3-yl)amino)nicotinamide], the GI50 in series [1] was 89.3 nM. Moreover, the microsomal CLint at 1 μM in series [2] (setting [7]) came to 8.46 µL/min/mg; in series [2] (setting [3]), 27.8 µL/min/mg; in series [2] (setting [5]), 126 µL/min/mg. Also, the half-life at 1 μM was 164 min in series [2] (setting [8]), 49.9 min in series [2] (setting [4]) and 11 min in series [2] (setting [6]).

In the case of `[2H]C([2H])([2H])NC(=O)c1cnc(Nc2ccc(F)cn2)cc1Nc1ccc2cnn(CC)c2c1OC` [Example 42, 4-((1-Ethyl-7-methoxy-1H-indazol-6-yl)amino)-6-((5-fluoropyridin-2-yl)amino)-N-(methyl-d3)nicotinamide], the GI50 in series [1] stood at 38.8 nM. In addition, the figures for the microsomal CLint at 1 μM in series [2] (setting [7]), in series [2] (setting [3]) and in series [2] (setting [5]) were 117 µL/min/mg, 11.9 µL/min/mg and 43.9 µL/min/mg, respectively. Besides, the half-life at 1 μM in series [2] (setting [8]) is 11.9 min; in series [2] (setting [4]), 117 min; in series [2] (setting [6]), 31.6 min.

As for `[2H]C([2H])([2H])NC(=O)c1cnc(Nc2ccn(C)n2)cc1Nc1ccc2cnn(CC)c2c1OC` [Example 43, 4-((1-Ethyl-7-methoxy-1H-indazol-6-yl)amino)-N-(methyl-d3)-6-((1-methyl-1H-pyrazol-3-yl)amino)nicotinamide], the GI50 in series [1] came to 85.2 nM. In addition, the microsomal CLint at 1 μM is 30.8 µL/min/mg in series [2] (setting [7]), 9.58 µL/min/mg in series [2] (setting [3]) and 48.5 µL/min/mg in series [2] (setting [5]). For the same compound, the half-life at 1 μM in series [2] (setting [8]) is 45 min; in series [2] (setting [4]), 145 min; in series [2] (setting [6]), 28.6 min.

As to `[2H]C([2H])([2H])NC(=O)c1cnc(NC(=O)C2CC2)cc1Nc1cnn2ccn(CC(F)(F)F)c(=O)c12` [Example 45, 6-(Cyclopropanecarboxamido)-N-(methyl-d3)-4-((4-oxo-5-(2,2,2-trifluoroethyl)-4,5-dihydropyrazolo[1,5-a]pyrazin-3-yl)amino)nicotinamide], the GI50 in series [1] is 160 nM. Also, the microsomal CLint at 1 μM in series [2] (setting [7]) came to 8.76 µL/min/mg; in series [2] (setting [3]), 51.9 µL/min/mg; in series [2] (setting [5]), 110 µL/min/mg. Also, the half-life at 1 μM in series [2] (setting [8]) stood at 158 min; in series [2] (setting [4]), 26.7 min; in series [2] (setting [6]), 12.6 min.

For the compound `COC(=O)c1cnc(NC(=O)C2CC2)cc1Nc1ncn2ccn(CC(F)(F)F)c(=O)c12` [Example 47, Methyl 6-(cyclopropanecarboxamido)-4-((8-oxo-7-(2,2,2-trifluoroethyl)-7,8-dihydroimidazo[1,5-a]pyrazin-1-yl)amino)nicotinate], in series [1], the GI50 was 180 nM. Besides, the microsomal CLint at 1 μM in series [2] (setting [7]) was 25 µL/min/mg; in series [2] (setting [3]), 45.2 µL/min/mg; in series [2] (setting [5]), 80 µL/min/mg. The half-life at 1 μM came to 55.4 min in series [2] (setting [8]), 30.7 min in series [2] (setting [4]) and 17.3 min in series [2] (setting [6]).

`[2H]C([2H])([2H])NC(=O)c1cnc(NC(=O)C2CC2)cc1Nc1ccc2nnc(CC)n2c1OC` [Example 58, 6-(Cyclopropanecarboxamido)-4-((3-ethyl-5-methoxy-[1,2,4]triazolo[4,3-a]pyridin-6-yl)amino)-N-(methyl-d3)nicotinamide]: the GI50 in series [1] is > 5000 nM. Moreover, the microsomal CLint at 1 μM in series [2] (setting [7]), in series [2] (setting [3]) and in series [2] (setting [5]) was < 11.5 µL/min/mg each time. For the same compound, the half-life at 1 μM in series [2] (setting [8]), in series [2] (setting [4]) and in series [2] (setting [6]) was > 120 min each time.

For the compound `[2H]C([2H])([2H])NC(=O)c1cnc2cc1Nc1cc(cc(-c3ncn(C)n3)c1OC)COCc1nc(ccc1F)N2` [Example 66, 18-Fluoro-10-methoxy-N-(methyl-d3)-11-(1-methyl-1H-1,2,4-triazol-3-yl)-15-oxa-2,4,8,21-tetraazatetracyclo[15.3.1.1^{3,7}.1^{9,13}]tricosa-1(20),3,5,7(23),9(22),10,12,17(21),18-nonaene-6-carboxamide], the GI50 in series [1] was 42.1 nM. Moreover, the microsomal CLint at 1 μM amounted to 23.1 µL/min/mg in series [2] (setting [7]), 6.48 µL/min/mg in series [2] (setting [3]) and 6.84 µL/min/mg in series [2] (setting [5]). The half-life at 1 μM in series [2] (setting [8]) was 59.9 min; in series [2] (setting [4]), 214 min; in series [2] (setting [6]) it was 203 min.

`[2H]C([2H])([2H])NC(=O)c1cnc2cc1Nc1cc(cc(-c3ncn(C)n3)c1OC)COCc1cc(C(F)(F)F)cc(n1)N2` [Example 69, 10-Methoxy-N-(methyl-d3)-11-(1-methyl-1H-1,2,4-triazol-3-yl)-19-(trifluoromethyl)-15-oxa-2,4,8,21-tetraazatetracyclo[15.3.1.1^{3,7}.1^{9,13}]tricosa-1(21),3,5,7(23),9(22),10,12,17,19-nonaene-6-carboxamide]: the GI50 in series [1] is 79.9 nM. Also, the microsomal CLint at 1 μM in series [2] (setting [7]) was 1.92 µL/min/mg; in series [2] (setting [5]) it was 3.32 µL/min/mg. Moreover, the half-life at 1 μM is 722 min in series [2] (setting [8]), > 120 min in series [2] (setting [4]) and 418 min in series [2] (setting [6]).

`[2H]C([2H])([2H])NC(=O)c1cnc2cc1Nc1cc(cc(-c3ncn(C)n3)c1OC)COCc1nc(ccc1C)N2` [Example 70, 10-Methoxy-N-(methyl-d3)-18-methyl-11-(1-methyl-1H-1,2,4-triazol-3-yl)-15-oxa-2,4,8,21-tetraazatetracyclo[15.3.1.1^{3,7}.1^{9,13}]tricosa-1(20),3,5,7(23),9(22),10,12,17(21),18-nonaene-6-carboxamide]: the GI50 in series [1] is 30 nM. In addition, the microsomal CLint at 1 μM in series [2] (setting [7]) was 30.4 µL/min/mg; in series [2] (setting [3]), 12.7 µL/min/mg; in series [2] (setting [5]), 7.43 µL/min/mg. In addition, the half-life at 1 μM amounted to 45.6 min in series [2] (setting [8]), 110 min in series [2] (setting [4]) and 187 min in series [2] (setting [6]).

The values are drawn from patent US20250115597A1, “TYK2 INHIBITORS AND COMPOSITIONS AND METHODS THEREOF” (LYNK PHARMACEUTICALS CO. LTD., priority 2021, published 2025).
